Source: patent publication US20260347364A1, “PYRAZOLO[4,3-F]QUINAZOLINE DERIVATIVES AS MODULATORS OF G12D MUTANT KRAS USEFUL FOR THE TREATMENT OF CANCER” (JAZZ PHARMACEUTICALS IRELAND LTD., priority 2023, published 2026)

Tests used:
[1] = molecular target: T1, KRAS G12V (Homo sapiens, UniProt P01116, G12V); assay: HTRF nucleotide exchange assay, KRAS G12V; assay type: biochemical; conditions: HTRF nucleotide exchange assay (NEA), class symbols
T1 construct: 4 nM KRAS; aa1-188 containing the G12V, G12C, G12A or G12S amino acid substitution
Protocol: (§1) HTRF Nucleotide Exchange Assay Method
The capacity of compounds to bind KRAS G12D, other KRAS mutants and wildtype RAS isoforms was quantified using a HTRF nucleotide exchange assay. Recombinant human RAS protein (2 nM; aa1-188 KRAS WT, HRAS WT, NRAS WT, or KRAS containing the G12D, G13D or Q61H amino acid substitutions, or 4 nM KRAS; aa1-188 containing the G12V, G12C, G12A or G12S amino acid substitution, an N-terminal 6× His-tag and leader sequence), and 2 nM Europium-labeled anti-6× His antibody were mixed in assay buffer (10 mM HEPES pH 7.3, 150 mM NaCl, 5 mM MgCl2, 0.05% BSA, 0.0025% NP-40 and 100 mM KF) with various concentrations of compound in a 384-well plate and a volume of 5 μL. After a 60-minute incubation at room temperature, 5 μl of 200 nM EDA-GTP-DY647P1 (diluted in assay buffer) was added to the plate. Following 30-minute incubation at room temperature, time-resolved fluorescence was measured on a PerkinElmer Envision plate reader. DMSO (0.3%) and unlabeled GDP (1 μM) or equivalent tool compound were used to generate the Max and Min assay signals, respectively. Data was analysed using a four-parameter logistic model to calculate IC50 values, with at least two independent replicates were performed for each compound. The results are presented as IC50s in Table 29 where “A” corresponds to an IC50 ≤10 nM, “B” to an IC50 >10 nM up to 100 nM, “C” is >100 nM up to 10 μM, “D” represents <49% inhibition at 10 μM and ND=not determined: […]

[2] = molecular target: T2, KRAS WT (Homo sapiens, UniProt P01116); assay: HTRF nucleotide exchange assay, KRAS WT; assay type: biochemical; conditions: HTRF nucleotide exchange assay (NEA), class symbols
T2 construct: aa1-188 KRAS WT

[3] = molecular target: T3, KRAS G12A (Homo sapiens, UniProt P01116, G12A); assay: HTRF nucleotide exchange assay, KRAS G12A; assay type: biochemical; conditions: HTRF nucleotide exchange assay (NEA), class symbols
T3 construct: 4 nM KRAS; aa1-188 containing the G12V, G12C, G12A or G12S amino acid substitution
Protocol: as §1
(§2) The capacity of compounds to bind KRAS G12D, other KRAS mutants and wildtype RAS isoforms was quantified using a HTRF nucleotide exchange assay. Recombinant human RAS protein (2 nM; aa1-188 KRAS WT, HRAS WT, NRAS WT, or KRAS containing the G12D, G13D or Q61H amino acid substitutions, or 4 nM KRAS; aa1-188 containing the G12V, G12C, G12A or G12S amino acid substitution, an N-terminal 6× His-tag and leader sequence), and 2 nM Europium-labeled anti-6× His antibody were mixed in assay buffer (10 mM HEPES pH 7.3, 150 mM NaCl, 5 mM MgCl2, 0.05% BSA, 0.0025% NP-40 and 100 mM KF) with various concentrations of compound in a 384-well plate and a volume of 5 μL. After a 60-minute incubation at room temperature, 5 μl of 200 nM EDA-GTP-DY647P1 (diluted in assay buffer) was added to the plate. Following 30-minute incubation at room temperature, time-resolved fluorescence was measured on a PerkinElmer Envision plate reader. DMSO (0.3%) and unlabeled GDP (1 μM) or equivalent tool compound were used to generate the Max and Min assay signals, respectively. Data was analysed using a four-parameter logistic model to calculate IC50 values, with at least two independent replicates were performed for each compound. […]

[4] = molecular target: T4, KRAS G12D (Homo sapiens, UniProt P01116, G12D); assay: HTRF nucleotide exchange assay, KRAS G12D; assay type: biochemical; conditions: HTRF nucleotide exchange assay (NEA), class symbols
T4 construct: aa1-188 KRAS WT, HRAS WT, NRAS WT, or KRAS containing the G12D

[5] = molecular target: T5, KRAS G12S (Homo sapiens, UniProt P01116, G12S); assay: HTRF nucleotide exchange assay, KRAS G12S; assay type: biochemical; conditions: HTRF nucleotide exchange assay (NEA), class symbols
T5 construct: 4 nM KRAS; aa1-188 containing the G12V, G12C, G12A or G12S amino acid substitution
Protocol: as §1, §2

[6] = Metabolic stability in human liver hepatocytes (substrate depletion, intrinsic clearance); assay type: in vitro ADME; conditions: 37° C., Williams E Media, LC-MS/MS depletion
Text: Determining the in vitro metabolic stability of a new chemical entity (NCE) is a very useful tool within drug discovery. A metabolic stability study will determine the in vitro intrinsic clearance (CLint) of a compound. The CLint value represents a measure of enzyme activity toward an NCE and is independent of other physiological factors such as blood flow. Determination of CLint within drug discovery helps to identify metabolic liabilities within a compound series, and ultimately assist in the identification of compounds with improved metabolic stability. The CLint value determined in vitro can be used to predict in vivo clearance (using species specific scaling factors) in pre-clinical species and ultimately in human. The liver is the primary organ involved in drug metabolism, of which there are two pathways-Phase I and Phase II. Phase I metabolism is primarily oxidative with the majority of these oxidations catalysed by cytochrome P450 enzymes (CYPs) which are located in the smooth endoplasmic reticulum (ER) in the liver. Phase II metabolism is catalysed by various conjugative enzymes which are located mainly in the ER and the cytosol. The in vitro systems used to study drug metabolism are mainly subcellular fractions such as liver microsomes or whole cells (hepatocytes) isolated from the liver. Hepatocytes, being whole cells, contain both Phase I and Phase II metabolizing enzymes and produce their own cofactors. This assay determines the metabolic stability of test compounds in human liver hepatocytes using the substrate depletion approach. The lower limit of the assay is a T1/2 >462 min and a CLint […]. Therefore the upper limit of the assay is 277 μL/min/106 cells. Any CLint value higher than this should be given an out of range value. Hepatocytes were plated in Williams E Media with added L-glutamine, compounds were added as 1 mM DMSO solution and incubated at 37° C. Compound depletion was measured by LC-MS/MS at multiple time points following quenching with cold acetonitrile. CLint was calculated from the following equation:
CLint(μl/min/106cells)=(In(2)/T1/2)*1000/cell density(10^6cells/mL)

T4 sequence (P01116 1-188 isoform P01116-2 G12D): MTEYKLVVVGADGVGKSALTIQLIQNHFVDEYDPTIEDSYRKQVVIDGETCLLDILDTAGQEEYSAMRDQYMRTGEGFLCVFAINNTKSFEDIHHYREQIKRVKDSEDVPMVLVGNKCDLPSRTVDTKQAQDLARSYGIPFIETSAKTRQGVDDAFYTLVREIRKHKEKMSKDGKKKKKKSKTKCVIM
T2 sequence (P01116 1-188 isoform P01116-2): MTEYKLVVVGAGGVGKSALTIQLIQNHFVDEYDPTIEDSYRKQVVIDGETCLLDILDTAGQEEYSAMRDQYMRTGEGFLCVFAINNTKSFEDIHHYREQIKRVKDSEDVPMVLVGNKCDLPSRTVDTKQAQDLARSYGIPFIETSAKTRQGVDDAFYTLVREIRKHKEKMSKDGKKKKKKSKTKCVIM
T1 sequence (P01116 1-188 isoform P01116-2 G12V): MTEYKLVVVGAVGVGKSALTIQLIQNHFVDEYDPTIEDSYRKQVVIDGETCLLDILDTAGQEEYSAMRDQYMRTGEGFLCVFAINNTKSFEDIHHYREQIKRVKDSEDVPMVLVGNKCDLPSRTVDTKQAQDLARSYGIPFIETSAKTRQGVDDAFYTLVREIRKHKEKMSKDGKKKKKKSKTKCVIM
T3 sequence (P01116 1-188 isoform P01116-2 G12A): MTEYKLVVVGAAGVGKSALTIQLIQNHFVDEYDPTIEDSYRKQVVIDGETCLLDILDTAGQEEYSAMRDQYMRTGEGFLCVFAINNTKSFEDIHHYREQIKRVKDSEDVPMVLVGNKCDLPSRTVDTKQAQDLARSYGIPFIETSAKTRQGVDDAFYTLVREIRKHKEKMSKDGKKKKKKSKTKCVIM
T5 sequence (P01116 1-188 isoform P01116-2 G12S): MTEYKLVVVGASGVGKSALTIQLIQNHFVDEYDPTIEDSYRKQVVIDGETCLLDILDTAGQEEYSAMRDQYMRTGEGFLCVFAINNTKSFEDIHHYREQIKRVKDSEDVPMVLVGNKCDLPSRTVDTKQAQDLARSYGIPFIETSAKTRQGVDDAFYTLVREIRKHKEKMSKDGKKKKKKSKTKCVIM

IC50 [1]	IC50 [2]	IC50 [3]	IC50 [4]	IC50 [5]	hepatocyte CLint [6]	Compound
≤ 10 nM	≤ 10 nM	≤ 10 nM	≤ 10 nM	10 to 100 nM	–	CCc1c(F)ccc2cc(O)cc(-c3c(C)c4nc(OC[C@@]56CCCN5C[C@H](F)C6)nc(N5CCOCC(C)(O)C5)c4c4cn(C)nc34)c12 (mixture of isomers) [Example 105, 4-[4-(8-ethyl-7-fluoro-3-hydroxy-1-naphthyl)-2,5-dimethyl-7-[rac-(2R)-2-fluoro-1,2,3,5,6,7-hexahydropyrrolizin-8-yl]methoxy]pyrazolo[4,3-f]quinazolin-9-yl]-6-methyl-1,4-oxazepan-6-ol]
10 to 100 nM	≤ 10 nM	≤ 10 nM	≤ 10 nM	10 to 100 nM	73.3 µL/min/1e6 cells	CCc1c(F)ccc2cc(O)cc(-c3cc4nc(OC[C@@]56CCCN5C[C@H](F)C6)nc(N5CCCOCC5)c4c4cn(C)nc34)c12 [Example 1, 5-ethyl-6-fluoro-4-[2-methyl-9-(1,4-oxazepan-4-yl)-7-[[(2R,8S)-2-fluoro-1,2,3,5,6,7-hexahydropyrrolizin-8-yl]methoxy]pyrazolo[4,3-f]quinazolin-4-yl]naphthalen-2-ol]
10 to 100 nM	100 to 10000 nM	–	≤ 10 nM	–	–	CCc1c(F)ccc2cc(O)cc(-c3cc4nc(OC[C@@]56CCCN5C[C@H](F)C6)nc(N5CC6CCC5CN6)c4c4cn(C)nc34)c12 (stereo partly drawn) [Example 14, 4-[9-(2,5-diazabicyclo[2.2.2]octan-2-yl)-2-methyl-7-[[(2R,8S)-2-fluoro-1,2,3,5,6,7-hexahydropyrrolizin-8-yl]methoxy]pyrazolo[4,3-f]quinazolin-4-yl]-5-ethyl-6-fluoro-naphthalen-2-ol]
